Drawing on ChEMBL document CHEMBL1150943, “Three dolabellanes and a macrolide from the sponge Dysidea sp. from Palau” (J Nat Prod, 1998), this text covers IC50 for three compounds.

The test system of one experiment is A2780. As to the kind of experiment: Cytotoxicity against human A2780 cells after 72 hrs by MTS assay. The format is functional, cell-based. As to conditions: A2780, 72 h. (In general: Formazan colour is commonly taken as a measure of viable cells.)
The next experiment relates to HCT-116. In words: Cytotoxicity against human HCT116 cells after 72 hrs by MTS assay. The format is functional, cell-based. As to conditions: HCT-116, 72 h.

One may read the IC50 as the midpoint of a concentration-inhibition curve. A low value points to greater potency. On to `CC(=O)O[C@H]1C/C(C)=C/C(=O)C[C@@H](C)/C=C/[C@@]2(C)CC[C@@H](C(C)(C)OC(C)=O)[C@H]12` (relative stereo), for which the IC50 in the experiment with A2780 worked out at 42 µM; in the experiment with HCT-116, 80 µM. In turn, `CC(=O)O[C@H]1/C=C(/C)CC(=O)C[C@@H](C)/C=C/[C@@]2(C)CC[C@@H](C(C)(C)OC(C)=O)[C@H]12` (relative stereo) displayed an IC50 with A2780 of 25 µM. For the compound `C=C(CCCC(O)CC(C)O)C[C@H]1CC(=C)C[C@@H](O)C/C(C)=C/[C@H](O)CCCC(=O)O1` (stereo not given in full) [ARENOLIDE], the half-maximal inhibitory concentration (IC50) in the experiment on A2780 turned out to be 9.8 µM; with HCT-116 it was 21 µM.
